Test results: patent US8987171B2, “Selective herbicides with activator adjuvants” (W. Neudorff GmbH KG, priority 2010, dated 2015)
Read-outs that look alike come from different tables or passages of the source.

Experiments:
perennial ryegrass [1] = experiment: Greenhouse black medic and turf test, iron chelates with Sylgard 309 (Example 2): grass damage; format: in vivo; conditions: sprayed twice at 200 ml/m^2, 7 days after first spraying, visual rating 0-100%
Method: (§1) The following non-limiting examples serve to further describe the invention. Unless otherwise specified, all of the iron solutions were made using the same molar concentration of iron ion as chelating agent. Samples were prepared by diluting a metal chelate, such as iron GLDA (Dissolvine GL-Fe-5), iron EDDS (Enviomet C320), or iron HEDTA (Neu 1173H), to the desired level of iron as specified using simple stirring. Neu 1173H contains the stabilizer sodium citrate at 1.5% prior to dilution. Dilutions of Neu1173H to the level of 0.25% Fe, incorporates 0.08% sodium citrate into the spray solutions. Adjuvants (Sylgard® 309, Biosoft®D-40, Tween® 20), were then diluted and added to the diluted metal chelate. Samples were usually prepared within 48 hours of spraying. All of the outside tests were done on areas of mixed grass and white clover that were at least 2 months old. For the greenhouse tests, white clover and black medic were grown in a commercial greenhouse mix using supplemental lighting and heating. Each plant was grown in a 2¼ inch pot to a minimum diameter of 15-20 cm. Perennial ryegrass was grown in 2¼ inch pots in the same greenhouse conditions as above and they are at least 4 weeks old at the time of application. […]
(§2) All plant damage was visually assessed using a percentage rating scale from 0 (no injury) to 100% (death). […]

black medic = experiment: Greenhouse black medic and turf test, iron chelates with Sylgard 309 (Example 2): black medic damage; format: in vivo; conditions: sprayed twice at 200 ml/m^2, 7 days after first spraying, visual rating 0-100%
Method: as §1, §2

perennial ryegrass [2] = experiment: Greenhouse white clover and turf test, iron chelates with Sylgard 309 (Example 6): grass damage; format: in vivo; conditions: sprayed twice at 200 ml/m^2, 14 days after second spraying, visual rating 0-100%
Method: as §1, §2

white clover [3] = experiment: Greenhouse white clover and turf test, iron chelates with Sylgard 309 (Example 6): white clover damage; format: in vivo, white clover (Trifolium repens); conditions: sprayed twice at 200 ml/m^2, 14 days after second spraying, visual rating 0-100%
Method: as §1, §2

park lawn [4] = experiment: Field English daisy and turf test, iron chelates with Sylgard 309 and Bio-Soft D-40 (Example 9): grass damage; format: in vivo; conditions: sprayed twice at 100 ml/m^2, 7 days after first spraying, visual rating 0-100%
Method: as §1, §2

English daisy [5] = experiment: Field English daisy and turf test, iron chelates with Sylgard 309 and Bio-Soft D-40 (Example 9): English daisy damage; format: in vivo, English daisy (Bellis perennis); conditions: sprayed twice at 100 ml/m^2, 7 days after first spraying, visual rating 0-100%
Method: as §1, §2

perennial ryegrass [6] = experiment: Greenhouse white clover and turf test, iron chelates with Sylgard 309 (Example 1): grass damage; format: in vivo; conditions: sprayed twice at 200 ml/m^2, 7 days after second spraying, visual rating 0 (no injury) to 100% (death)
Method: as §1, §2

white clover [7] = experiment: Greenhouse white clover and turf test, iron chelates with Sylgard 309 (Example 1): white clover damage; format: in vivo, white clover (Trifolium repens); conditions: sprayed twice at 200 ml/m^2, 7 days after second spraying, visual rating 0-100%
Method: as §1, §2

perennial ryegrass [8] = format: in vivo; conditions: greenhouse, sprayed twice at 200 ml/m^2, one day after first spraying, visual rating 0-100%
Method: as §1, §2

white clover [9] = experiment: Greenhouse white clover and turf test, iron chelates with Bio-Soft D-40 (Example 3): white clover damage; format: in vivo, white clover (Trifolium repens); conditions: sprayed twice at 200 ml/m^2, one day after first spraying, visual rating 0-100%
Method: as §1, §2

perennial ryegrass [10] = experiment: Greenhouse dandelion and turf test, iron chelates with Sylgard 309 (Example 7): grass damage; format: in vivo; conditions: sprayed twice at 200 ml/m^2, 7 days after first spraying, visual rating 0-100%
Method: as §1, §2

dandelion = experiment: Greenhouse dandelion and turf test, iron chelates with Sylgard 309 (Example 7): dandelion damage; format: in vivo, dandelion (Taraxacum officinale); conditions: sprayed twice at 200 ml/m^2, 7 days after first spraying, visual rating 0-100%
Method: as §1, §2

park lawn [11] = experiment: Field white clover and turf test, iron chelates with Bio-Soft D-40 (Example 4): grass damage; format: in vivo; conditions: sprayed twice at 200 ml/m^2, 14 days after second spraying, visual rating 0-100%
Method: as §1, §2

white clover [12] = experiment: Field white clover and turf test, iron chelates with Bio-Soft D-40 (Example 4): white clover damage; format: in vivo, white clover (Trifolium repens); conditions: sprayed twice at 200 ml/m^2, 14 days after second spraying, visual rating 0-100%
Method: as §1, §2

perennial ryegrass [13] = experiment: Greenhouse white clover and turf test, iron chelates with Tween 20 (Example 5): grass damage; format: in vivo; conditions: sprayed twice at 200 ml/m^2, one day after first spraying, visual rating 0-100%
Method: as §1, §2

white clover [14] = experiment: Greenhouse white clover and turf test, iron chelates with Tween 20 (Example 5): white clover damage; format: in vivo, white clover (Trifolium repens); conditions: sprayed twice at 200 ml/m^2, one day after first spraying, visual rating 0-100%
Method: as §1, §2

park lawn [15] = experiment: Field English daisy and turf test, iron chelates with Sylgard 309 (Example 8): grass damage; format: in vivo; conditions: sprayed twice at 200 ml/m^2, 5 days after first spraying, visual rating 0-100%
Method: as §1, §2

English daisy [16] = experiment: Field English daisy and turf test, iron chelates with Sylgard 309 (Example 8): English daisy damage; format: in vivo, English daisy (Bellis perennis); conditions: sprayed twice at 200 ml/m^2, 5 days after first spraying, visual rating 0-100%
Method: as §1, §2

Substance	Grass Damage (%) (perennial ryegrass [1])	Black Medic Damage (%) (black medic)	Grass Damage (%) (perennial ryegrass [2])	White Clover Damage (%) (white clover [3])	Grass Damage (%) (park lawn [4])	English daisy Damage (%) (English daisy [5])	Grass Damage (%) (perennial ryegrass [6])	White Clover Damage (%) (white clover [7])	Grass Damage (%) (perennial ryegrass [8])	White Clover Damage (%) (white clover [9])	Grass Damage (%) (perennial ryegrass [10])	Dandelion Damage (%) (dandelion)	Grass Damage (%) (park lawn [11])	White Clover Damage (%) (white clover [12])	Grass Damage (%) (perennial ryegrass [13])	White Clover Damage (%) (white clover [14])	Grass Damage (%) (park lawn [15])	English daisy Damage (%) (English daisy [16])
iron hydroxyethylenediaminetriacetic acid [FeHEDTA 1.5% a.i (0.25% Fe)]	3	54	2	46	2	81												
iron glutamicaciddiacetic acid [FeGLDA 2.28% a.i. (0.4% Fe)]							8	7	0	8	6	38						
iron ethylenediaminedisuccinate [FeEDDS 2.49% a.i. (0.4% Fe)]	2	28					3	27	1	15			1	38	0	18	4	39
